Test system: 653999-131-R-J2-PDC complex spheroids, growth % test/control
Test: Anticancer human tumor 653999-131-R-J2-PDC patient-derived lung adenocarcinoma cell line growth inhibition [AhR]
Conditions: for IC50: curve of first compound; for viability, T/C: stronger effect = lower value
Outline: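 Agents were dosed in half-log steps down from roughly clinical Cmax, or from 10 microM where Cmax was unknown, alone and with AhR antagonists. Read-out: percent test/control growth of tumor spheroids containing HUVEC and MSC stromal cells.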

[1] = second compound 0.1 µM, first compound 0.0316 µM
[2] = second compound 0.1 µM, first compound 0.1 µM
[3] = second compound 0.316 µM, first compound 0.0316 µM
[4] = second compound 0.316 µM, first compound 0.1 µM
[5] = second compound 1 µM, first compound 0.0316 µM
[6] = second compound 1 µM, first compound 0.1 µM
[7] = second compound 3.16 µM, first compound 0.0316 µM
[8] = second compound 3.16 µM, first compound 0.1 µM
[9] = second compound 10 µM, first compound 0.0316 µM
[10] = second compound 10 µM, first compound 0.1 µM
[11] = second compound 0.1 µM, first compound 0.316 µM
[12] = second compound 0.1 µM, first compound 1 µM
[13] = second compound 0.1 µM, first compound 3.16 µM
[14] = second compound 0.1 µM, first compound 10 µM
[15] = second compound 0.316 µM, first compound 0.316 µM
[16] = second compound 0.316 µM, first compound 1 µM
[17] = second compound 0.316 µM, first compound 3.16 µM
[18] = second compound 0.316 µM, first compound 10 µM
[19] = second compound 1 µM, first compound 0.316 µM
[20] = second compound 1 µM, first compound 1 µM
[21] = second compound 1 µM, first compound 3.16 µM
[22] = second compound 1 µM, first compound 10 µM
[23] = second compound 3.16 µM, first compound 0.316 µM
[24] = second compound 3.16 µM, first compound 1 µM
[25] = second compound 3.16 µM, first compound 3.16 µM
[26] = second compound 3.16 µM, first compound 10 µM
[27] = second compound 10 µM, first compound 0.316 µM
[28] = second compound 10 µM, first compound 1 µM
[29] = second compound 10 µM, first compound 3.16 µM
[30] = second compound 10 µM, first compound 10 µM
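Further: spheroids exposed to agents for seven days.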
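Wherever viability, T/C is given: 100% = DMSO vehicle control viability.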

| Compound | IC50 (second compound 0.1 µM) [nM] | IC50 (second compound 0.316 µM) [nM] | IC50 (second compound 1 µM) [nM] | IC50 (second compound 3.16 µM) [nM] | IC50 (second compound 10 µM) [nM] | viability, T/C [1] [%] | viability, T/C [2] [%] | viability, T/C [3] [%] | viability, T/C [4] [%] | viability, T/C [5] [%] | viability, T/C [6] [%] | viability, T/C [7] [%] | viability, T/C [8] [%] | viability, T/C [9] [%] | viability, T/C [10] [%] | viability, T/C [11] [%] | viability, T/C [12] [%] | viability, T/C [13] [%] | viability, T/C [14] [%] | viability, T/C [15] [%] | further results |
| --- | --- | --- | --- | --- | --- | --- | --- | --- | --- | --- | --- | --- | --- | --- | --- | --- | --- | --- | --- | --- | --- |
| CC[C@@]1(O)C(=O)OCc2c1cc1n(c2=O)Cc2cc3c(CN(C)C)c(O)ccc3nc2-1 + CC(CO)NC(=O)c1cc(-c2ccc(Cl)cc2)nn(-c2cnn(C)c2)c1=O | 36.7 | 27.7 | 24.5 | 22.9 | 21 | 52.2 | 38.1 | 46.8 | 31.3 | 40.6 | 32.3 | 43.6 | 31.4 | 41.3 | 32.3 | – | – | – | – | – | viability, T/C (second compound 0.1 µM, first compound 0.000316 µM): 94.8%; viability, T/C (second compound 0.1 µM, first compound 0.001 µM): 97.8%; viability, T/C (second compound 0.1 µM, first compound 0.00316 µM): 94.9%; viability, T/C (second compound 0.1 µM, first compound 0.01 µM): 79%; viability, T/C (second compound 0.316 µM, first compound 0.000316 µM): 93.2%; viability, T/C (second compound 0.316 µM, first compound 0.001 µM): 94.4%; viability, T/C (second compound 0.316 µM, first compound 0.00316 µM): 97.4%; viability, T/C (second compound 0.316 µM, first compound 0.01 µM): 79.1%; viability, T/C (second compound 1 µM, first compound 0.000316 µM): 111%; viability, T/C (second compound 1 µM, first compound 0.001 µM): 96%; viability, T/C (second compound 1 µM, first compound 0.00316 µM): 99.1%; viability, T/C (second compound 1 µM, first compound 0.01 µM): 80.7%; viability, T/C (second compound 3.16 µM, first compound 0.000316 µM): 85.9%; viability, T/C (second compound 3.16 µM, first compound 0.001 µM): 92.3%; viability, T/C (second compound 3.16 µM, first compound 0.00316 µM): 95.3%; viability, T/C (second compound 3.16 µM, first compound 0.01 µM): 69.8%; viability, T/C (second compound 10 µM, first compound 0.000316 µM): 90.5%; viability, T/C (second compound 10 µM, first compound 0.001 µM): 95.3%; viability, T/C (second compound 10 µM, first compound 0.00316 µM): 83.7%; viability, T/C (second compound 10 µM, first compound 0.01 µM): 65.9% |
| CC1(C)CCC(CN2CCN(c3ccc(C(=O)NS(=O)(=O)c4ccc(NCC5CCOCC5)c([N+](=O)[O-])c4)c(Oc4cnc5[nH]ccc5c4)c3)CC2)=C(c2ccc(Cl)cc2)C1 + Cc1ccccc1N=Nc1ccc(NC(=O)c2ccnn2C)c(C)c1 | > 10000 | > 10000 | > 10000 | > 10000 | > 10000 | 100 | 99.1 | 88.8 | 90.6 | 99 | 93.1 | 99.5 | 90.2 | 84 | 94.7 | 103 | 95.1 | 97.7 | 68.7 | 97.7 | viability, T/C [16]: 86%; viability, T/C [17]: 92.1%; viability, T/C [18]: 64.7%; viability, T/C [19]: 89%; viability, T/C [20]: 99.4%; viability, T/C [21]: 91.7%; viability, T/C [22]: 73.8%; viability, T/C [23]: 94.3%; viability, T/C [24]: 90%; viability, T/C [25]: 85.6%; viability, T/C [26]: 80.8%; viability, T/C [27]: 83.9%; viability, T/C [28]: 88.9%; viability, T/C [29]: 81%; viability, T/C [30]: 80.5% |
| NS(=O)(=O)OCC1CC(n2ccc3c(NC4CCc5ccccc54)ncnc32)CC1O (stereo not given) + Cc1ccccc1N=Nc1ccc(NC(=O)c2ccnn2C)c(C)c1 | > 10000 | > 10000 | > 10000 | > 10000 | > 10000 | 111 | 120 | 114 | 105 | 115 | 119 | 125 | 109 | 129 | 118 | 118 | 124 | 88.9 | 64.7 | 123 | viability, T/C [16]: 129%; viability, T/C [17]: 72.7%; viability, T/C [18]: 61.3%; viability, T/C [19]: 124%; viability, T/C [20]: 124%; viability, T/C [21]: 63.3%; viability, T/C [22]: 61.4%; viability, T/C [23]: 142%; viability, T/C [24]: 93.4%; viability, T/C [25]: 61.8%; viability, T/C [26]: 62.3%; viability, T/C [27]: 115%; viability, T/C [28]: 63.7%; viability, T/C [29]: 56.7%; viability, T/C [30]: 60% |
| Nc1ccccc1NC(=O)c1ccc(CNC(=O)OCc2cccnc2)cc1 + Cc1ccccc1N=Nc1ccc(NC(=O)c2ccnn2C)c(C)c1 | 2500 | 3460 | 2270 | 1900 | 3480 | 91.9 | 83 | 91.4 | 83.5 | 83.8 | 85.1 | 89.3 | 84.7 | 86.4 | 81.6 | 79.2 | 73.7 | 43.4 | 12.3 | 69 | viability, T/C [16]: 64.9%; viability, T/C [17]: 62.3%; viability, T/C [18]: 14.1%; viability, T/C [19]: 70.4%; viability, T/C [20]: 58.5%; viability, T/C [21]: 50.4%; viability, T/C [22]: 13.9%; viability, T/C [23]: 70.2%; viability, T/C [24]: 54.4%; viability, T/C [25]: 50.5%; viability, T/C [26]: 13.3%; viability, T/C [27]: 71.4%; viability, T/C [28]: 59.6%; viability, T/C [29]: 63.1%; viability, T/C [30]: 13.4% |
